Laboratory results as given in PubChem BioAssay (NCI).
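Method: 48-hour compound exposure of cells in 96-well plates, five concentrations, linear interpolation of endpoints. TGI: total growth inhibition.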

Experiments:
Assay in all cases: growth of human tumour cells (NCI), 48 h
[1] = test system: OVCAR-4 ovarian
[2] = test system: TK-10 renal
[3] = test system: HL-60(TB) leukemia
[4] = test system: NCI-H460 lung
[5] = test system: MOLT-4 leukemia
[6] = test system: RPMI-8226 leukemia
[7] = test system: M14 melanoma
[8] = test system: IGROV1 ovarian
[9] = test system: HOP-92 NSCLC
[10] = test system: NCI-H23 lung
[11] = test system: EKVX NSCLC
[12] = test system: HCC-2998 colon
[13] = test system: SR leukemia
[14] = test system: MDA-MB-231 breast
[15] = test system: DU-145 prostate
[16] = test system: MDA-N

How did the TGI [1] turn out when `O=C(O)C1=C(CO)Oc2cc3c(cc2C1c1ccc2c(c1)OCO2)OCO3` (configuration not stated) was run?
Its TGI is greater than 100 µM.

And the TGI [2]?
Its TGI is greater than 100 µM.

What about the TGI [3] of the same molecule?
Its TGI is greater than 100 µM.

And the TGI [4]?
The TGI was greater than 100 µM.

What about the TGI [5] of the same molecule?
Its TGI is greater than 100 µM.

And the TGI [6]?
Its TGI is greater than 100 µM.

What about the TGI [7] of the same molecule?
Its TGI is greater than 100 µM.

What about the TGI [8] of the same molecule?
Its TGI is greater than 100 µM.

What about the TGI [9] of the same molecule?
The TGI was greater than 100 µM.

And the TGI [10]?
Its TGI is greater than 100 µM.

What about the TGI [11] of the same molecule?
The TGI was greater than 100 µM.

How did the TGI [1] turn out when `CC(C)N(CC(=O)O)CC(=O)O` was run?
The TGI was greater than 100 µM.

And the TGI [2]?
Its TGI is greater than 100 µM.

What about the TGI [12] of the same molecule?
Its TGI is greater than 100 µM.

And the TGI [13]?
Its TGI is greater than 100 µM.

And the TGI [14]?
The TGI was greater than 100 µM.

What about the TGI [3] of the same molecule?
Its TGI is greater than 100 µM.

And the TGI [4]?
The TGI was greater than 100 µM.

What about the TGI [5] of the same molecule?
Its TGI is greater than 100 µM.

What about the TGI [6] of the same molecule?
Its TGI is greater than 100 µM.

And the TGI [7]?
The TGI was greater than 100 µM.

What about the TGI [8] of the same molecule?
The TGI was greater than 100 µM.

And the TGI [9]?
Its TGI is greater than 100 µM.

What about the TGI [10] of the same molecule?
The TGI was greater than 100 µM.

What about the TGI [11] of the same molecule?
The TGI was greater than 100 µM.

What about the TGI [15] of the same molecule?
Its TGI is greater than 100 µM.

What about the TGI [16] of the same molecule?
The TGI was greater than 100 µM.

For `CC(C)=CCC/C(C)=C/Cc1c2c(c3oc(-c4ccc(O)c(O)c4)c(O)c(=O)c3c1O)C=CC(C)(C)O2`, which TGI [1] is on record?
Its TGI is 9.5 µM.

What about the TGI [2] of the same molecule?
The TGI was 11.2 µM.

What about the TGI [13] of the same molecule?
Its TGI is 6.94 µM.

And the TGI [14]?
The TGI was 14.5 µM.

What about the TGI [3] of the same molecule?
The TGI was 6.29 µM.

What about the TGI [4] of the same molecule?
Its TGI is 10.9 µM.

What about the TGI [5] of the same molecule?
The TGI was 8.98 µM.

What about the TGI [6] of the same molecule?
The TGI was 9.93 µM.

And the TGI [7]?
Its TGI is 9.42 µM.

And the TGI [8]?
The TGI was 8.5 µM.

And the TGI [10]?
Its TGI is 11.6 µM.

What about the TGI [15] of the same molecule?
The TGI was 8.59 µM.

What about the TGI [16] of the same molecule?
Its TGI is 11.4 µM.

For `COc1ccc2c(O)c1-c1c(OC)ccc(c1O)SSc1ccc(OC)c(c1O)-c1c(OC)ccc(c1O)SS2`, which TGI [1] is on record?
Its TGI is 69.8 µM.

And the TGI [2]?
Its TGI is greater than 100 µM.

And the TGI [13]?
Its TGI is 21.5 µM.

And the TGI [14]?
The TGI was greater than 100 µM.

What about the TGI [3] of the same molecule?
The TGI was greater than 100 µM.

And the TGI [5]?
The TGI was greater than 100 µM.

What about the TGI [6] of the same molecule?
The TGI was 7.07 µM.

What about the TGI [7] of the same molecule?
Its TGI is greater than 100 µM.

And the TGI [8]?
Its TGI is greater than 100 µM.

What about the TGI [9] of the same molecule?
Its TGI is 90.1 µM.

What about the TGI [11] of the same molecule?
The TGI was 44 µM.

What about the TGI [15] of the same molecule?
Its TGI is greater than 100 µM.

And the TGI [16]?
Its TGI is greater than 100 µM.

`[O-]c1c2c(nn1-c1ccc(F)cc1)c1ccccc1c[n+]2Cc1ccccc1` was tested. Which TGI [1] did it give?
The TGI was 66.2 µM.

What about the TGI [2] of the same molecule?
Its TGI is 83 µM.

What about the TGI [12] of the same molecule?
Its TGI is 24.8 µM.

What about the TGI [13] of the same molecule?
Its TGI is 41.9 µM.

What about the TGI [3] of the same molecule?
Its TGI is 11.1 µM.

And the TGI [4]?
Its TGI is 29.7 µM.

What about the TGI [5] of the same molecule?
Its TGI is 81.5 µM.

And the TGI [6]?
The TGI was 47.1 µM.

And the TGI [7]?
Its TGI is 15.3 µM.

What about the TGI [8] of the same molecule?
The TGI was 30.6 µM.

And the TGI [9]?
The TGI was 57.9 µM.

What about the TGI [10] of the same molecule?
The TGI was 55.8 µM.

What about the TGI [11] of the same molecule?
Its TGI is 56.4 µM.

For `C/C(=C\[Si](C)(C)c1ccco1)C(C)(O)[C@H](C)O` (some centres not stated), which TGI [1] is on record?
The TGI was 12.8 µM.

And the TGI [2]?
The TGI was greater than 100 µM.

And the TGI [12]?
The TGI was greater than 100 µM.

What about the TGI [13] of the same molecule?
The TGI was greater than 100 µM.

And the TGI [14]?
The TGI was greater than 100 µM.

And the TGI [3]?
Its TGI is greater than 100 µM.

And the TGI [4]?
The TGI was greater than 100 µM.

What about the TGI [5] of the same molecule?
The TGI was greater than 100 µM.

And the TGI [6]?
Its TGI is greater than 100 µM.

And the TGI [7]?
The TGI was greater than 100 µM.

And the TGI [8]?
Its TGI is greater than 100 µM.

And the TGI [9]?
The TGI was greater than 100 µM.

And the TGI [10]?
The TGI was 86.4 µM.

And the TGI [11]?
Its TGI is greater than 100 µM.

What about the TGI [15] of the same molecule?
The TGI was greater than 100 µM.

And the TGI [16]?
Its TGI is greater than 100 µM.
